Measured values from patent publication US9868748B2, “Thiazolopyrrolidine inhibitors of ROR- γ” (Vitae Pharmaceuticals, Inc., priority 2013, dated 2018).
pIC50, pKi: −log10 of the molar value. Like-named read-outs stand apart in the source and are kept apart here.

How the values were obtained:
[1] = molecular target: recombinant RORγ Ligand Binding Domain (LBD) protein (Homo sapiens (Human), UniProt P51449); assay: Radio-Ligand RORγ Binding Assay (Assay 1); conditions: competition with 25-hydroxy [26,27-3H]-cholesterol, SPA, read-out: RORγ Binding Ki Range*
Chain of recombinant RORγ Ligand Binding Domain (LBD) protein (P51449 269-508): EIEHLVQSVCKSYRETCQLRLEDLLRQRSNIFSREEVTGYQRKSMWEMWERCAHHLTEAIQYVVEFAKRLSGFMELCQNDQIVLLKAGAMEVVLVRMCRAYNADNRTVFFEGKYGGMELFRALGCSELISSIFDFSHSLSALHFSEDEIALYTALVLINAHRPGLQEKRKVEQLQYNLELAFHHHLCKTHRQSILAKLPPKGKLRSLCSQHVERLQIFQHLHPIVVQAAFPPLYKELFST
Outline: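 Recombinant human RORγ ligand binding domain (6×His-GST fusion, 24 nM stock) competed with tritiated 25-hydroxycholesterol (8.6 nM stock) in HEPES buffer pH 7.4 with detergents and DTT; poly-Lys YSi SPA beads, room temperature, tritium SPA signal. Four-parameter IC50 from semi-log dilutions, normalised to DMSO and 10 μM T0901317, then Ki via KD equation.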

[2] = molecular target: full-length RORγt in Jurkat cells (Homo sapiens (Human), UniProt P51449); assay: RORγt 5xRORE Assay in Jurkat Cells (Assay 2); format: cell-based; conditions: Nanoluc luciferase reporter, 16-18 hrs
Chain of full-length RORγt in Jurkat cells (P51449 other isoform, or with tags, fused parts or gaps): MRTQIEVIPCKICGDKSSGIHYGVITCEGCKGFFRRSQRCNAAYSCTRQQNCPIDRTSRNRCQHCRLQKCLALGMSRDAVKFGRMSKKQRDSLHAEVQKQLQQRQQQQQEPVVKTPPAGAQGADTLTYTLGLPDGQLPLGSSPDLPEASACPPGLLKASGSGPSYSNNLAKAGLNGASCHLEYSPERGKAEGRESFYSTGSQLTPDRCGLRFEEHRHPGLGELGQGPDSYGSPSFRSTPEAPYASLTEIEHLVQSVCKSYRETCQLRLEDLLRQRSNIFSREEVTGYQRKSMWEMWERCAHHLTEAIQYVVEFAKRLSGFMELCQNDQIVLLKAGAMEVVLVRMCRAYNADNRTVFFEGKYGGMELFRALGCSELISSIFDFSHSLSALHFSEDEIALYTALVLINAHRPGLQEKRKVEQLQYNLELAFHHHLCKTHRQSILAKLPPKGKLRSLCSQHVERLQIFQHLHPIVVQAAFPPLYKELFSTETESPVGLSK
Outline: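 Inverse agonist activity was read as NanoGlo luminescence from conditioned medium after 16–18 h compound exposure (37 °C, 0.1% DMSO final). The cells were Jurkat, transiently transfected with RORγt and a secNluc reporter carrying five RORE repeats, seeded 80,000 per well in delipidated-serum RPMI.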

[3] = Table 9, read-out: RORγt5X IC50 Range*
[4] = Table 8, read-out: RORγt5X IC50 Range*

pKi ([1]; Table 9) | pIC50 [2, 3] | pKi ([1]; Table 8) | pIC50 [2, 4] | SMILES
> 7.00 | 6.00 to 7.00 | – | – | CCS(=O)(=O)c1cnc(CNC(=O)c2nc3c(s2)CN(Cc2ccc(C(F)(F)F)cc2)[C@H]3C(C)C)nc1
> 7.00 | 6.00 to 7.00 | – | – | CCS(=O)(=O)c1ccc(CC(=O)Nc2nc3c(s2)CN([C@@H](C)Cc2ccc(Cl)cc2)[C@H]3C(C)C)cc1
> 7.00 | < 6.00 | – | – | CCS(=O)(=O)c1ccc(CC(=O)Nc2nc3c(s2)CN(Cc2ccncc2)[C@H]3C(C)C)cc1
– | – | > 7.00 | > 7.00 | Cc1cc(CN2Cc3sc(NC(=O)Cc4ccc(S(C)(=O)=O)cc4)nc3[C@@H]2C(C)C)ccc1C#N [I-B7]
> 7.00 | 6.00 to 7.00 | – | – | CC(C)[C@H]1c2nc(NC(=O)Cc3ccc(S(C)(=O)=O)cc3)sc2CN1[C@H](C)c1ccc(Cl)cn1 (single isomer, unassigned)
– | – | > 7.00 | > 7.00 | CC(C)[C@H]1c2nc(NC(=O)Cc3ccc(S(C)(=O)=O)cc3)sc2CN1[C@@H](C)c1ccc(C#N)cc1Cl [I-B10]
> 7.00 | < 6.00 | – | – | CCS(=O)(=O)c1ccc(CC(=O)Nc2nc3c(s2)CN(Cc2ccc4c(c2)CCO4)[C@H]3C(C)C)cc1
– | – | > 7.00 | > 7.00 | CC[C@H](C)C1c2nc(NC(=O)Cc3ccc(S(C)(=O)=O)cc3)sc2CN1Cc1ccc(C#N)c(F)c1 (stereo partly drawn) [I-H2]
> 7.00 | 6.00 to 7.00 | – | – | CCS(=O)(=O)c1ccc(CC(=O)Nc2nc3c(s2)CN(Cc2ccc(C(F)(F)F)cc2)[C@@H]3C(C)C)cc1
– | – | > 7.00 | > 7.00 | CCS(=O)(=O)c1ccc(CC(=O)Nc2nc3c(s2)CN(Cc2ccc(Cl)cc2)[C@H]3C(C)C)nc1 [I-C1, (S)—N-(5-(4-chlorobenzyl)-4-isopropyl-5,6-dihydro-4H-pyrrolo[3,4-d]thiazol-2-yl)-2-(5-(ethylsulfonyl)pyridin-2-yl)acetamide]
> 7.00 | > 7.00 | – | – | CCS(=O)(=O)c1ccc(CC(=O)Nc2nc3c(s2)CN([C@@H](C)c2ccc(C#N)cn2)[C@H]3C(C)C)cc1 (single isomer, unassigned)
– | – | > 7.00 | > 7.00 | CCS(=O)(=O)c1ccc(CC(=O)Nc2nc3c(s2)CN(Cc2ccc(-c4nnnn4C)cc2)[C@H]3C(C)C)cc1 [I-A40]
> 7.00 | < 6.00 | – | – | CC(C)[C@H]1c2nc(NC(=O)Cc3ccc(Cl)cc3)sc2CN1Cc1ccc(Cl)cc1
– | – | > 7.00 | > 7.00 | CCS(=O)(=O)c1ccc(CC(=O)Nc2nc3c(s2)CN([C@@H](C)c2ccc(C(F)(F)F)cc2F)[C@H]3C(C)C)cc1 [I-A37]
6.00 to 7.00 | < 6.00 | – | – | CC(C)[C@H]1c2nc(NC(=O)Cc3ccc(Br)cc3)sc2CN1Cc1ccc(Cl)cc1
> 7.00 | < 6.00 | – | – | CCS(=O)(=O)c1ccc(CC(=O)Nc2nc3c(s2)CN(Cc2cccc(Br)c2)[C@@H]3C(C)C)cc1
> 7.00 | < 6.00 | – | – | CCS(=O)(=O)c1ccc(CC(=O)Nc2nc3c(s2)CN(Cc2cccc(F)c2)[C@@H]3C(C)C)cc1
> 7.00 | > 7.00 | – | – | CC[C@@]1(C)c2nc(NC(=O)Cc3ccc(S(=O)(=O)CC)cc3)sc2CN1Cc1ccc(Cl)cc1
> 7.00 | < 6.00 | – | – | CCS(=O)(=O)c1ccc(CC(=O)Nc2nc3c(s2)CN(C[C@@H]2CC[C@H](C(F)(F)F)NC2)[C@H]3C(C)C)cc1 (single isomer, unassigned)
6.00 to 7.00 | < 6.00 | – | – | CC(C)[C@H]1c2nc(NC(=O)Cc3ccc(-c4nnn[nH]4)cc3)sc2CN1Cc1ccc(Cl)cc1
> 7.00 | > 7.00 | – | – | CCS(=O)(=O)c1ccc(CC(=O)Nc2nc3c(s2)CN(Cc2ccc(Br)cc2)[C@H]3C(C)C)cc1
– | – | > 7.00 | > 7.00 | CCS(=O)(=O)c1ccc(CC(=O)Nc2nc3c(s2)CN(C[C@H]2CC[C@@](OC)(C(F)(F)F)CC2)[C@H]3C(C)C)nc1 [I-C8]
> 7.00 | < 6.00 | – | – | COc1ccc(CC(=O)Nc2nc3c(s2)CN(Cc2ccc(Cl)cc2)[C@H]3C(C)C)cc1
– | – | > 7.00 | > 7.00 | CCS(=O)(=O)c1ccc(CC(=O)Nc2nc3c(s2)CN(Cc2ccc(C(=O)OC)cc2)[C@H]3C(C)C)cc1 [I-A60]
> 7.00 | < 6.00 | – | – | CCS(=O)(=O)c1ccc(CC(=O)Nc2nc3c(s2)CN(CCc2ccc(Cl)cc2)[C@H]3C(C)C)cc1
6.00 to 7.00 | 6.00 to 7.00 | – | – | CC(C)[C@H]1c2nc(NC(=O)Cc3ccc(-c4nnn(C)n4)cc3)sc2CN1Cc1ccc(Cl)cc1
> 7.00 | 6.00 to 7.00 | – | – | CCS(=O)(=O)c1ccc(CNC(=O)c2nc3c(s2)CN(Cc2ccc4nonc4c2)[C@H]3C(C)C)nc1

pKi ([1]; Table 9) | pIC50 [2, 3] | pKi ([1]; Table 8) | pIC50 [2, 4] | SMILES
> 7.00 | 6.00 to 7.00 | – | – | CCS(=O)(=O)c1ccc(CC(=O)Nc2nc3c(s2)CN(Cc2c(F)cc(C#N)cc2F)[C@H]3C(C)C)cc1
– | – | > 7.00 | > 7.00 | CCS(=O)(=O)c1ccc(CC(=O)Nc2nc3c(s2)CN([C@@H](C)c2ccc(Cl)cn2)[C@H]3C(C)C)cc1 [I-A48]
> 7.00 | > 7.00 | – | – | CCS(=O)(=O)c1ccc(CC(=O)Nc2nc3c(s2)CN(C[C@H]2CC[C@](OC)(C(F)(F)F)CC2)[C@H]3C(C)C)nc1 (single isomer, unassigned)
> 7.00 | > 7.00 | – | – | CCS(=O)(=O)c1ccc(CC(=O)Nc2nc3c(s2)CN(Cc2ccc(C(F)(F)F)nn2)[C@H]3C(C)C)cc1
– | – | > 7.00 | > 7.00 | CCS(=O)(=O)c1ccc(CC(=O)Nc2nc3c(s2)CN(Cc2ccc(C#N)c(F)c2)[C@H]3C(C)C)cc1 [I-A4]
– | – | > 7.00 | > 7.00 | CCS(=O)(=O)c1ccc(CC(=O)Nc2nc3c(s2)CN(C[C@@H]2CC[C@@H](C(F)(F)F)N(C)C2)[C@H]3C(C)C)cc1 [I-A29]
– | – | > 7.00 | > 7.00 | CCS(=O)(=O)c1ccc(CC(=O)Nc2nc3c(s2)CN(Cc2ccc(C#N)cc2F)[C@H]3C(C)C)cc1 [I-A13]
> 7.00 | < 6.00 | – | – | CCS(=O)(=O)c1ccc(CC(=O)Nc2nc3c(s2)CN(C[C@H]2C[C@H](C#N)C2)[C@H]3C(C)C)cc1 (relative stereo)
> 7.00 | 6.00 to 7.00 | – | – | CCS(=O)(=O)c1ccc(CC(=O)Nc2nc3c(s2)CN(Cc2ccc(=O)n(C4CC4)c2)[C@H]3C(C)C)cc1
> 7.00 | > 7.00 | – | – | CCS(=O)(=O)c1ccc(CNC(=O)c2nc3c(s2)CN(Cc2ccc4c(c2)OC(F)(F)O4)[C@H]3C(C)C)nc1
> 7.00 | 6.00 to 7.00 | – | – | CC[C@H]1c2nc(NC(=O)Cc3ccc(F)cc3)sc2CN1Cc1ccc(Cl)cc1
> 7.00 | < 6.00 | – | – | CC(C)[C@H]1c2nc(NS(=O)(=O)c3ccc(CC(=O)O)cc3)sc2CN1Cc1ccc(C#N)c(F)c1 [drawing 411]
> 7.00 | 6.00 to 7.00 | – | – | CC(C)[C@H]1c2nc(C(=O)NCc3ccc(S(C)(=O)=O)cc3)sc2CN1Cc1ccc(C#N)cc1F
> 7.00 | 6.00 to 7.00 | – | – | CCS(=O)(=O)c1ccc(CC(=O)Nc2nc3c(s2)CN(C[C@H]2CC[C@H](C(N)=O)CC2)[C@H]3C(C)C)cc1
– | – | > 7.00 | > 7.00 | CCS(=O)(=O)c1ccc(CC(=O)Nc2nc3c(s2)CN(Cc2ccc(C#N)c(Cl)c2)[C@H]3C(C)C)nc1 [I-C10]
> 7.00 | < 6.00 | – | – | CCS(=O)(=O)c1ccc(CC(=O)Nc2nc3c(s2)CN(Cc2cc(OC(F)F)ccc2F)[C@@H]3C(C)C)cc1
> 7.00 | < 6.00 | – | – | CCS(=O)(=O)c1ccc(CC(=O)Nc2nc3c(s2)CN(C[C@@H]2CC[C@H](C(F)(F)F)N(C4CC4)C2)[C@H]3C(C)C)cc1 (single isomer, unassigned)
– | – | > 7.00 | > 7.00 | CCc1ccc(CN2Cc3sc(NC(=O)Cc4ccc(S(=O)(=O)CC)cc4)nc3[C@@H]2C(C)C)cc1 [I-A63]
– | – | > 7.00 | > 7.00 | CCS(=O)(=O)c1ccc(CC(=O)Nc2nc3c(s2)CN(C[C@H]2CC[C@H](c4nnc(C)o4)CC2)[C@H]3C(C)C)cc1 [I-A23]
– | – | > 7.00 | > 7.00 | CCS(=O)(=O)c1ccc(CC(=O)Nc2nc3c(s2)CN(C[C@H]2CC[C@H](C(F)(F)F)OC2)[C@H]3C(C)C)cc1 [I-A27]
> 7.00 | < 6.00 | – | – | CCS(=O)(=O)c1ccc(CC(=O)Nc2nc3c(s2)CN([C@H](C)Cc2ccccc2)[C@H]3C(C)C)cc1
– | – | > 7.00 | > 7.00 | CCS(=O)(=O)c1ccc(CC(=O)Nc2nc3c(s2)CN(Cc2cnc(C(F)(F)F)nc2)[C@H]3C(C)C)cc1 [I-A58]
> 7.00 | 6.00 to 7.00 | – | – | CC[C@H]1c2nc(NC(=O)Cc3ccc(S(C)(=O)=O)cc3)sc2CN1Cc1ccc2nn[nH]c2c1
– | – | > 7.00 | > 7.00 | CCS(=O)(=O)c1ccc(CNC(=O)c2nc3c(s2)CN(C[C@@H]2CN(C(=O)OC(C)(C)C)CCO2)[C@H]3C(C)C)cc1 [I-J5]
– | – | > 7.00 | > 7.00 | CCS(=O)(=O)c1ccc(CC(=O)Nc2nc3c(s2)CN(Cc2ccc(C#N)cn2)[C@@]3(C)C(C)C)cc1 [I-I1, (S)—N-(5-((5-cyanopyridin-2-yl)methyl)-4-isopropyl-4-methyl-5,6-dihydro-4H-pyrrolo[3,4-d]thiazol-2-yl)-2-(4-(ethylsulfonyl)phenyl)acetamide]
– | – | > 7.00 | > 7.00 | CCS(=O)(=O)c1ccc(CC(=O)Nc2nc3c(s2)CN(Cc2cc(C)c(C#N)cn2)[C@H]3C(C)C)cc1 [I-A49]
> 7.00 | 6.00 to 7.00 | – | – | CC(C)[C@H]1c2nc(NC(=O)Cc3ccc(C(C)(C)C#N)cc3)sc2CN1Cc1ccc(Cl)cc1
